Measurements published in patent US9248119B2, “Modified release dosage forms of xanthine oxidoreductase inhibitor or xanthine oxidase inhibitors” (Takeda Pharmaceuticals U.S.A., Inc., priority 2010, dated 2016).
Where two headings read alike, the source gives them in different places.

Assays:
clinical = details: human, in vivo; for Vd/F: Vss/F
Method: The development of the previously described embodiments resulted from a long drug development process. […] The study was also designed to assess the pharmacokinetic and pharmacodynamic profiles of multiple daily oral doses over a range of doses and ranges, including both once-daily and twice-daily administration.
(§1) Samples were analyzed by high performance liquid chromatography.

[1] = Bioavailability of febuxostat released in various locations of the gastrointestinal tract (site of absorption study); format: in vivo, human; details: humans
Method: Subjects all received regimens in a crossover fashion according to a randomization schedule. Extra periods (up to 2 per subject) were added where subject dose release issues required repeating a regimen. There was a washout interval of at least 7 days between the dose in a period and the next dose in the subsequent period.
The method utilizes protein precipitation with acetonitrile of a 100-μL aliquot of plasma, with a lower limit of detection of 10.0 ng/mL.
Pharmacokinetic parameters for febuxostat were estimated using standard noncompartmental methods. Calculations were performed using the WinNonlin Pro Version 5.2 (Mountain View, Calif., USA). The descriptive statistics for pharmacokinetic parameter estimates were computed. […] The subjects who had improper capsule release were allowed to repeat up to two extra periods after their scheduled sequence had ended. For ANOVA purposes, the missing or incomplete data from the periods with improper capsule release was replaced by the data from the corresponding repeated periods using the originally planned period for that regimen.

[2] = Phase 1 single-dose 5-way crossover study of four extended release and one immediate release febuxostat formulation; format: in vivo, human; details: all subjects, all formulations
Description: This examples describes the results of a phase 1, single-center, open-label, randomized, 5-way crossover study. Thirty-five adult male and female subjects aged 18 to 55 years, inclusive, in good health, were selected to participate in this study.

uric acid = experiment: Pharmacodynamics in Phase 1 dose escalation study: uric acid levels; format: in vivo, human
Method: as §1

xanthine oxidase = xanthine oxidase (Homo sapiens, UniProt P47989)
[3] = cited from earlier work; for fu (free fraction in plasma): in %
[4] = normal patients, 14C, nominal 1 μg/mL
[5] = patients with severe renal impairment

xanthine oxidase, sequence (P47989 whole entry): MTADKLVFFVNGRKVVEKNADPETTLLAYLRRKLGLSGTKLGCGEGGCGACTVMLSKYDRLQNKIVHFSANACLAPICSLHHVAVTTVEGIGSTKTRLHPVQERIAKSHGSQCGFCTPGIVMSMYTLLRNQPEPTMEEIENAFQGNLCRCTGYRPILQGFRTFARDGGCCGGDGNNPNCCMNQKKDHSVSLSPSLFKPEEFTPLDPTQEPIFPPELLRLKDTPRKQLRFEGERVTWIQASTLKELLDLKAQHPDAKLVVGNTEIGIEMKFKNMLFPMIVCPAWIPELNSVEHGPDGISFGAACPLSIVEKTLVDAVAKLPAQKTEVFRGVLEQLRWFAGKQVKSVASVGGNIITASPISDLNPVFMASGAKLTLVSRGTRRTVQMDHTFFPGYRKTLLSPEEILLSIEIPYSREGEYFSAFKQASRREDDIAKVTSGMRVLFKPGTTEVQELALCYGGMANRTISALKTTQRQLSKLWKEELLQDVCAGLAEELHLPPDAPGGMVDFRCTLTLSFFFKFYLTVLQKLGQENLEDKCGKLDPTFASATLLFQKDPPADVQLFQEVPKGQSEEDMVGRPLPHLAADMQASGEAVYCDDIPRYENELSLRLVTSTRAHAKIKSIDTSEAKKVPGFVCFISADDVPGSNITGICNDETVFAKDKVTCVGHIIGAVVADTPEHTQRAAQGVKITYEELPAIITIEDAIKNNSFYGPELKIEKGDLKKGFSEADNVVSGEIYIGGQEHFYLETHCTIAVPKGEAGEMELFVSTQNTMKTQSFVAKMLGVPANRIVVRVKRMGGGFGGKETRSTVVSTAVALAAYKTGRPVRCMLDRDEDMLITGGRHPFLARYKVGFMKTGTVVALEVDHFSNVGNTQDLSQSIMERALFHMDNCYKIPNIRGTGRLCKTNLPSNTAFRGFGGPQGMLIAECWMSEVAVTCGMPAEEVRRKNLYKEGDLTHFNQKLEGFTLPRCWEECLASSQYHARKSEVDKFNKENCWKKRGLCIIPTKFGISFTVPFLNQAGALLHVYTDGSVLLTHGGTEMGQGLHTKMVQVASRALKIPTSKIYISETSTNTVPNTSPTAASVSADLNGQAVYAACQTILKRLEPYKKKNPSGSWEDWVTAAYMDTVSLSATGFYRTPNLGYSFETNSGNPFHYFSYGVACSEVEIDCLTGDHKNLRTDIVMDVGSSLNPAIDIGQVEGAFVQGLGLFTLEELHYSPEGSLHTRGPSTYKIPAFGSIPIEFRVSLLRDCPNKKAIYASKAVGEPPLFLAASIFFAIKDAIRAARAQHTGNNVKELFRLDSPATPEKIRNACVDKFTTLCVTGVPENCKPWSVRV

Cc1nc(-c2ccc(OCC(C)C)c(C#N)c2)sc1C(=O)O [Febuxostat, 2-[3-cyano-4-(2-methylpropoxy)phenyl]-4-methylthiazole-5-carboxylic acid]
Vd (clinical): ~0.7 L/kg | half-life (clinical): ~6 h | Cmax (clinical; 10 mg): 399.5 ng/mL | Tmax (clinical; 10 mg): 0.70 h | Vss/F (clinical; 10 mg): 42.7 L | AUC (clinical; 10 mg, AUC (AUC24)): 950 ng·h/mL | AUC(0-inf) (clinical; 10 mg): 727 ng·h/mL | Cmax (clinical; 10 mg, Cmax): 336 ng/mL | Vd/F (clinical; 10 mg): 38.2 L | Tmax (clinical; 10 mg, tmax): 0.99 h | Cmax (clinical; 20 mg): 934.2 ng/mL | Vss/F (clinical; 20 mg): 33.3 L | AUC (clinical; 20 mg, AUC (AUC24)): 2110 ng·h/mL | AUC(0-inf) (clinical; 20 mg): 2180 ng·h/mL | Cmax (clinical; 20 mg, Cmax): 1110 ng/mL | Vd/F (clinical; 20 mg): 29.2 L | Tmax (clinical; 20 mg, tmax): 1.06 h | AUC (AUC12) (clinical; 30 mg): 3308.3 ng·h/mL | AUC (AUC∞) (clinical; 30 mg): 2816.9 ng·h/mL | AUC (clinical; 30 mg, AUC (AUC12)): 2910 ng·h/mL | AUC (clinical; 30 mg, AUC (AUC24)): 2570 ng·h/mL | AUC(0-inf) (clinical; 30 mg): 2550 ng·h/mL | Cmax (clinical; 30 mg, Cmax): 1120 ng/mL | Cmax (clinical; 40 mg): 1822.1 ng/mL | Vss/F (clinical; 40 mg): 49.5 L | AUC (clinical; 40 mg, AUC (AUC24)): 4300 ng·h/mL | AUC(0-inf) (clinical; 40 mg): 3980 ng·h/mL | Cmax (clinical; 40 mg, Cmax): 1530 ng/mL | Vd/F (clinical; 40 mg): 48.7 L | Tmax (clinical; 40 mg, tmax): 1.44 h | Cmax (clinical; 50 mg): 1791.7 ng/mL | Vss/F (clinical; 50 mg): 59.1 L | AUC (clinical; 50 mg, AUC (AUC24)): 4380 ng·h/mL | AUC(0-inf) (clinical; 50 mg): 4410 ng·h/mL | Cmax (clinical; 50 mg, Cmax): 1970 ng/mL | Vd/F (clinical; 50 mg): 43.2 L | Tmax (clinical; 50 mg, tmax): 0.78 h | Cmax (clinical; 70 mg): 2689.9 ng/mL | Vss/F (clinical; 70 mg): 54.1 L | AUC (clinical; 70 mg, AUC (AUC24)): 6950 ng·h/mL | AUC(0-inf) (clinical; 70 mg): 6930 ng·h/mL | Cmax (clinical; 70 mg, Cmax): 3080 ng/mL | Vd/F (clinical; 70 mg): 41.6 L | Tmax (clinical; 70 mg, tmax): 1 h | Cmax (clinical; 90 mg): 4058.9 ng/mL | Vss/F (clinical; 90 mg): 63.7 L | AUC (clinical; 90 mg, AUC (AUC24)): 9650 ng·h/mL | AUC(0-inf) (clinical; 90 mg): 9090 ng·h/mL | Cmax (clinical; 90 mg, Cmax): 3480 ng/mL | Vd/F (clinical; 90 mg): 56.7 L | Tmax (clinical; 90 mg, tmax): 0.95 h | Cmax (clinical; 120 mg): 5307.6 ng/mL | Vss/F (clinical; 120 mg): 55.1 L | AUC (clinical; 120 mg, AUC (AUC24)): 12000 ng·h/mL | AUC(0-inf) (clinical; 120 mg): 11300 ng·h/mL | Cmax (clinical; 120 mg, Cmax): 4470 ng/mL | Vd/F (clinical; 120 mg): 57.8 L | Tmax (clinical; 120 mg, tmax): 1 h | Cmax (clinical; 160 mg): 8771.1 ng/mL | Vss/F (clinical; 160 mg): 36.1 L | AUC (clinical; 160 mg, AUC (AUC24)): 22300 ng·h/mL | AUC(0-inf) (clinical; 160 mg): 20700 ng·h/mL | Cmax (clinical; 160 mg, Cmax): 7300 ng/mL | Vd/F (clinical; 160 mg): 40.7 L | Tmax (clinical; 160 mg, tmax): 0.75 h | Cmax (clinical; 180 mg): 8048.8 ng/mL | Tmax (clinical; 180 mg): 1.00 h | Vss/F (clinical; 180 mg): 45.6 L | AUC (clinical; 180 mg, AUC (AUC24)): 24000 ng·h/mL | AUC(0-inf) (clinical; 180 mg): 25600 ng·h/mL | Cmax (clinical; 180 mg, Cmax): 8400 ng/mL | Vd/F (clinical; 180 mg): 54.6 L | Tmax (clinical; 180 mg, tmax): 1.07 h | Cmax (clinical; 240 mg): 11263 ng/mL | Vss/F (clinical; 240 mg): 31.3 L | AUC (clinical; 240 mg, AUC (AUC24)): 35000 ng·h/mL | AUC(0-inf) (clinical; 240 mg): 28300 ng·h/mL | Cmax (clinical; 240 mg, Cmax): 8390 ng/mL | Vd/F (clinical; 240 mg): 54.6 L | Tmax (clinical; 240 mg, tmax): 1.06 h | oral clearance from the plasma (clinical; po): 7.3 to 15.1 L/h | Tmax (clinical; po, tmax): ~1 h | absorption in the colon compared to immediate release, proximal intestine and distal intestine [1]: approximately 40% | absorption lag-time after oral dosing [2]: no absorption lag-time | lowering uric acid levels (uric acid; 30 mg twice daily compared with once daily 120 mg): as effective | serum uric acid concentrations (uric acid; IR, once a day, as little as 10 mg, healthy subjects): lowers concentrations of uric acid | inhibition of uric acid levels (uric acid; in vivo febuxostat concentrations at or above 100 ng/mL (0.1 μg/mL)): ≥ 80% | time with at least 80% inhibition of xanthine oxidase (xanthine oxidase; 120 mg immediate release dosage forms, other studies): ~14 h | time with at least 80% inhibition of xanthine oxidase (xanthine oxidase; 240 mg immediate release dosage forms, further studies): about 22 hours | percent free fraction of febuxostat in plasma ([3]; male, female, younger and elderly group of subjects): 0.7±0.1% | percent fu [3, 4]: 0.9±0.2% | fu (free fraction in plasma) [3, 4]: 0.9±0.2 | percent fu [3, 5]: 1.2±0.2% | fu (free fraction in plasma) [3, 5]: 1.2±0.2
